According to PMC2680146 (Chemical biology & drug design, 2008):
“Also recorded” adds a separate entry of the source.

Tests used:
[1] = λirrad 350 nm; ref [16]; cited from earlier work
rPFTase = rPFTase (Rattus norvegicus, UniProt Q02293+Q04631); experiment: X-ray crystallography of rPFTase:FPP:15 complex; assay type: binding; details: FPP bound in presence of 15 vs PDB 1KZO
yPFTase [2] = experiment: yPFTase-catalyzed prenylation, product analysis by HPLC; assay type: biochemical, Saccharomyces cerevisiae; details: FPP source pure FPP or photolysis product of 5 or 9
Photolysis = assay type: physicochemical; details: 300-400 nm light (λmax 350 nm)
yPFTase [3] = experiment: yPFTase substrate studies, continuous fluorescence assay; assay type: biochemical, Saccharomyces cerevisiae
PFTase = details: literature comparison value; ref [46]; cited from earlier work

Sequence of rPFTase (Q02293 whole entry, one chain of several): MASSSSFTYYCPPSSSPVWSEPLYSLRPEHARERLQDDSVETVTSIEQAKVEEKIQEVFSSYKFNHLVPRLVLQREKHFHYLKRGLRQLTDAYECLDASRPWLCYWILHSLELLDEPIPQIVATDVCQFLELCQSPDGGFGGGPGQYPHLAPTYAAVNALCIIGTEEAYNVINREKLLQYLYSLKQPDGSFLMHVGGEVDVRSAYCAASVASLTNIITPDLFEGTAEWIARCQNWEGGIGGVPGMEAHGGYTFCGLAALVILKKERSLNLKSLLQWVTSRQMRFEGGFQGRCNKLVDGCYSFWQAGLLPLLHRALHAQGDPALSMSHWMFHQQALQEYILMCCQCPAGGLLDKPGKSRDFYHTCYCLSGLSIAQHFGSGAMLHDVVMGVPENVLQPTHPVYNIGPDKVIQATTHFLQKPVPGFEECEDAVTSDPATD

Compound	prenylated product formed (yPFTase [2])	Qu1 (single-photon uncaging efficiency) (Photolysis; 25 mM NH4HCO3)	photolysis product (Photolysis; RP-HPLC)	substrate behaviour (yPFTase [3]; prior to uncaging)	also measured
COc1cc(C(C)OP(=O)(O)OP(=O)(O)OP(=O)(O)OC[C@H]2O[C@@H](n3cnc4c(N)ncnc43)[C@H](O)[C@@H]2O)c([N+](=O)[O-])cc1OC (stereo partly shown) [DMNPE-ATP]	–	–	–	–	Qu1 (quantum efficiency) [1]: 0.07 mol·ein^-1; Uncaging Rate [1]: 18.0 s⁻¹
CC(C)=CCC/C(C)=C/CC/C(C)=C/CO[P@@](=O)(O)OP(=O)(O)O (stereo in doubt) [FPP, farnesyl diphosphate, reference compound]	same prenylated product	–	–	–	rms deviation over all FPP atoms (rPFTase): 0.546 Å
COc1cc(C(C)OP(=O)(O)OP(=O)(O)OC/C=C(\C)CC/C=C(\C)CCC=C(C)C)c([N+](=O)[O-])cc1OC (stereo not drawn) [Compound 9, β-1-(4,5-dimethoxy-nitrophenyl)ethyl farnesyl diphosphate]	same prenylated product	0.08	release of farnesyl diphosphate; also recorded: efficiently release FPP upon irradiation	poorer substrate prior to uncaging; also recorded: poor substrates for PFTase	uncaging rate constant k (Photolysis; 25 mM NH4HCO3, RP-HPLC, first-order kinetics): 0.12 min⁻¹; rate of enzymatic prenylation relative to FPP (yPFTase [3]; prior to uncaging): 7.6%
CC(C)=CCC/C(C)=C/CC/C(C)=C/COP(=O)(O)OP(=O)(O)OCc1ccccc1[N+](=O)[O-] [Compound 5, β-(2-nitrobenzyl)farnesyl diphosphate]	same prenylated product	0.70	release of farnesyl diphosphate; also recorded: efficiently release FPP upon irradiation	better substrate than compound 9; also recorded: poor substrates for PFTase	interference of photolysis byproducts with catalysis (yPFTase [3]; after irradiation): do not interfere with catalysis in any way
CVIM	–	–	–	–	IC50 (PFTase): 0.165 µM
